A short description of data set [1]: Metabolic stability in liver microsomes. The note with it: for t1/2, NADPH free / half-life in liver microsomes: 1 μM; for t1/2, NADPH free: up to 2 h at 37°C, LC-MS/MS, first-order decay fit; for half-life in liver microsomes: NADPH state not specified, 37°C; for half-life: liver microsomes. The procedure:
Metabolic stability was determined as described in reference. […] Following incubation, samples were quenched with ice-cold methanol or acetonitrile (ACN), containing an appropriate internal standard and centrifuged to remove precipitated protein, and the supernatants were analyzed to quantitate the remaining parent. […] Data were converted to the percentage remaining by dividing by the time zero concentration value. Data were fit to a first-order decay model to determine half-life. Intrinsic clearance was calculated from the half-life and the protein concentrations.
Background: Microsomes from liver hold many membrane-bound enzymes, among them those of drug oxidation.

Data set [2] in a line: Plasma protein binding, ultracentrifugation. Format: in vitro ADME. The note with it: human, ∼500,000 × g 2.5 h at 37°C, LC-MS/MS, SEM, read-out: % of protein bound (SEM) (converted). The procedure: Ultracentrifugation ([15]) was used to compare human plasma protein binding of CD101 and anidulafungin. […] Following ultracentrifugation, the supernatant was transferred to a microtiter plate containing 50 μl plasma for matrix-matching purposes and quenched with 400 μl of cold acetonitrile (ACN) with 0.1% formic acid containing diclofenac as an internal standard. Quenched samples were centrifuged for 5 min at 10°C (e.g., 3,100 rpm [2,000 × g]) to sediment the precipitated proteins, and 50 μl supernatant was transferred to a microtiter plate containing 100 μl of water prior to analysis by LC-MS/MS. The percentage bound was the difference between 100% and the percentage free (the ratio of the concentration in supernatant to the total concentration).

Data set [3] can be described thus: Plasma protein binding, rapid equilibrium dialysis. The note with it: rat, pH 7.4, read-out: protein bound (converted). The data set is classed as in vitro ADME, Sprague-Dawley rat. The procedure:
(§1) Rapid equilibrium dialysis (RED) ([16]) was used to determine cross-species protein binding of CD101 in CD-1 mouse, Sprague-Dawley rat, cynomolgus monkey, chimpanzee, and human plasma. […] Dialysis buffer (350 μl of phosphate-buffered saline [PBS], pH 7.4, with 100 mM sodium phosphate) was loaded into the buffer (left) channel of the RED device. The device was agitated gently at 37°C for 4 h. Samples were placed into a new 96-well plate for matrix matching (25 μl of plasma added to the dialysis buffer aliquots or 25 μl of dialysis buffer to the plasma aliquots). […] Following centrifugation, 200 μl of the supernatant was transferred to a clean 96-well plate and evaporated to dryness at 37°C under nitrogen. Samples were reconstituted in 100 μl of 1:1 acetonitrile-water prior to analysis by LC-MS/MS. The percentage bound was calculated as the difference between 100% and the percentage free (the ratio of the concentration in supernatant to the concentration in plasma).

Data set [4] is described as follows: Plasma protein binding, rapid equilibrium dialysis. The note with it: human, pH 7.4, read-out: protein bound (converted). The data set is classed as in vitro ADME. The procedure:
as §1

Data set [5] can be described thus: Reactive metabolite screening (glutathione trapping). Format: in vitro ADME. The procedure:
Samples were diluted to 10 μg/ml into 50:50 acetonitrile-water with 0.1 formic acid. Samples were analyzed by LC (Agilent 1100) with high-resolution MS (Waters quadrupole time of flight [Q-TOF] Premier mass spectrometer with electrospray interface) with concurrent low- and high-energy scans to obtain full-scan parent and product fragment ions. The analytical column was a Phenomenex Kinetex (2.6-μm C18, 100 by 3.0 mm). Waters MassLynx 4.1 software was used for data analysis.

The conditions of data set [6]: rat.
For a further data set, the system named is C. albicans R303. The note with it: CLSI broth microdilution, read after 24 h at 35°C, prominent growth inhibition (∼50%). A general note: Dilution methods test growth across graded concentrations, often in twofold steps.
For data set [7] the following is noted: 4-week repeat-dose, ref Ong et al., submitted, cited from earlier work. An excerpt: The studies described herein are part of a comprehensive series of safety, pharmacology, and toxicology studies of up to 4 weeks' duration as well as genetic toxicology studies, as required for an investigational new drug application. The results provide important insights for further research and development of CD101 and are best considered in this broader, developing context.

The next data set addresses T1, CYP2C8 (Homo sapiens, UniProt P10632).
T1 sequence (P10632 1-490): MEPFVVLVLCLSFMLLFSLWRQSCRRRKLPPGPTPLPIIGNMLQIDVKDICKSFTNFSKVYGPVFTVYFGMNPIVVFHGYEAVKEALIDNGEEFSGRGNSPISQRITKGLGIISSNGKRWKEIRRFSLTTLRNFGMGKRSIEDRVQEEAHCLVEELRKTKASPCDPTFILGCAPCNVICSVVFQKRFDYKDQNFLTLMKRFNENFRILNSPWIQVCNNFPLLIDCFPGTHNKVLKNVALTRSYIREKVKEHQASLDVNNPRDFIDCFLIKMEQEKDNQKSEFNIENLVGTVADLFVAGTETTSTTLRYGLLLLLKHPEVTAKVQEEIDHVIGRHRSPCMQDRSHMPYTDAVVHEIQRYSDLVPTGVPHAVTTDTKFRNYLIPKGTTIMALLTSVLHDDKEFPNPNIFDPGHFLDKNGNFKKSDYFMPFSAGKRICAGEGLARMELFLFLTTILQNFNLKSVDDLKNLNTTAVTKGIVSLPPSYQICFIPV
The experiment in a line: CYP450 inhibition in human liver microsomes.

Data set [8] concerns A. fumigatus (ATCC 13073). The experiment in a line: Neutropenic mouse model of A. fumigatus infection, survival. The note with it: for survival: 10-day observation, n = 10/group.
Description: Animals were immunosuppressed by three i.p. injections of cyclophosphamide (the first injection at 6 mg/mouse 3 days before inoculation and the second and third injections at 2 mg/mouse on 1 and 4 days after inoculation). […] Dose administration started 1 and 7 h after infection. […] An increase of 50% or more in the survival rate of the active groups compared to the vehicle group indicated significant antifungal efficacy.

Where two headings read alike, the source gives them in different places. Starred links: 1 amine or outer side, 2 acyl side, 3 side chain; linkers in the order of their positions; H or OH if unused. Positions of bridges follow the written chain, without caps; N, C: chain ends. Non-standard residues stand in square brackets, D forms with d. Residues, ends and D or L forms follow the SMILES beside them. *: point of attachment. Orn(4R-OH,5R-OCH2CH2NMe3+) = C[N+](C)(C)CCO[C@@H](N[*:3])[C@H](O)C[C@H](N[*:1])C(=O)[*:2]; pTerphenylCO(4''-OnC5H11) = CCCCCOc1ccc(-c2ccc(-c3ccc(C(=O)*)cc3)cc2)cc1; hTyr(3S-OH,4S-OH) = N[C@H](C(=O)O)[C@H](O)[C@@H](O)c1ccc(O)cc1; Pro(3S-OH,4S-Me) = C[C@H]1CN[C@H](C(=O)O)[C@H]1O; Hyp = O=C(O)[C@@H]1C[C@@H](O)CN1

The term half-life denotes the time needed for the level to fall by half in the phase considered. What is called microsomal CLint is the rate of metabolic loss divided by the concentration. As a reminder, the MIC is the smallest concentration in the dilution series that meets the test's criterion for growth inhibition. Usually IC50 stands for the concentration that inhibits the measured activity by half.

Description for C. albicans R303: Enumeration of MIC and MEC assay inoculum viable counts was performed by plating aliquots of the starting assay inoculum on Sabouraud dextrose agar.
Description for CYP2C8: The final DMSO content in the reaction mixture was equal in all solutions used within an assay and was less than 0.2%. […] After incubation for 5 min at 37°C, the reactions were terminated by addition of methanol-containing internal standard (propranolol) for analytical quantification. The quenched samples were incubated at 4°C for 10 min and centrifuged at 4°C for 10 min.

As to `CCCCCOc1ccc(-c2ccc(-c3ccc(C(=O)N[C@H]4C[C@@H](O)[C@@H](OCC[N+](C)(C)C)NC(=O)[C@@H]5[C@@H](O)[C@@H](C)CN5C(=O)[C@H]([C@@H](C)O)NC(=O)[C@H]([C@H](O)[C@@H](O)c5ccc(O)cc5)NC(=O)[C@@H]5C[C@@H](O)CN5C(=O)[C@H]([C@@H](C)O)NC4=O)cc3)cc2)cc1` [CD101] ({pTerphenylCO(4''-OnC5H11)}-[Orn(4R-OH,5R-OCH2CH2NMe3+)]T[Hyp][hTyr(3S-OH,4S-OH)]T[Pro(3S-OH,4S-Me)]; lactam 1-C), the “t1/2, NADPH free” value in data set [1] (human liver microsomes without NADPH) and in data set [1] (monkey liver microsomes without NADPH) was over 4 h in each case. For the same molecule, the “half-life in liver microsomes” value in [1] (human microsomes) and in [1] (monkey microsomes) was at least 4 h each time. Besides, the half-life in data set [1] (human) was over 4 h; in data set [1] (monkey), over 4 h; in data set [6] (liver microsomes) it was over 4 h; in data set [6] (microsomes), 3.99 h. Further, the microsomal CLint was found to be 2.1 µL/min/mg in [1] (monkey, microsomes) and 9.6 µL/min/mg in [6] (microsomes). Further, the fraction unbound in data set [2] (1 μg/ml) is 0.02; in data set [2] (5 μg/ml), 0.017; in data set [3], 0.022; in data set [4], 0.013. The “degradation on incubation with and without GSH” value in [5] (PBS pH 7.4, 37°C, 24 h of incubation (Fig. 3 legend), LC-HRMS) is “No degradation observed”. In data set [5] (PBS pH 7.4, excess GSH, 37°C, LC with high-resolution MS), the “GSH adduct formation (reactive intermediate)” value is “not found to generate any GSH adduct”. In the data set with C. albicans R303, this molecule displayed an MIC of 0.12 µg/mL. Besides, the “no observed adverse effect level relative to the efficacious plasma exposure level” value was 47 times in data set [7] (cynomolgus monkeys) and 34 times in data set [7] (rats). Further, at CYP2C8, 25.7 µM corresponded to half-maximal inhibition (IC50). In addition, the values for the survival in [8] (0.2 mg/kg i.v. BID for 5 days), in [8] (1 mg/kg i.v. BID for 5 days) and in [8] (5 mg/kg i.v. BID for 5 days) were 80%, 90% and 100%, respectively. The “10-day survival rate compared to the vehicle group” value in data set [8] (BID for 5 days, CD101 all dose groups and anidulafungin 1 and 5 mg/kg i.v. (P < 0.05), amphotericin B 0.3 mg/kg i.p.) is given as “significant increase”.

Values taken from PMC5075098, “Preclinical Evaluation of the Stability, Safety, and Efficacy of CD101, a Novel Echinocandin” (Antimicrobial Agents and Chemotherapy, 2016).
